What all share (type): functional
The species entered for assay [1] is Mus musculus. As to the kind of experiment: Effect on the proliferation of murine spleen cells evaluated in terms of [3H]TdR uptake into the cells at a concentration of 10 ng/mL.
The species entered for assay [2] is Mus musculus. As to the kind of experiment: Effect on the proliferation of murine spleen cells evaluated in terms of [3H]TdR uptake into the cells at a concentration of 1 ng/mL.
Assay [3] is filed under the species Mus musculus. As to the kind of experiment: Effect on the proliferation of murine spleen cells evaluated in terms of [3H]TdR uptake into the cells at a concentration of 100 ng/mL.

Drawing on ChEMBL document CHEMBL1132057, “Effects of 3alpha- and 3beta-galactosylated alpha-galactosylceramides on the immune system” (1999), this text covers 3H-TdR incorpolation for 5 compounds.

With `CCCCCCCCCCCCCCCCCCCCCC[C@@H](O)C(=O)N[C@@H](CO[C@H]1O[C@@H](CO)[C@H](O)[C@H](O)[C@@H]1O)[C@@H](CCCCCCCCCCCCCCC)O[C@H]1O[C@@H](CO)[C@H](O)[C@H](O)[C@@H]1O`, the 3H-TdR incorpolation worked out at 34892 c.p.m in the assay listed under Mus musculus [1], 16138 c.p.m in the assay listed under Mus musculus [2] and 44867 c.p.m in the assay listed under Mus musculus [3].

For `CCCCCCCCCCCCCCCCCCCCCC[C@@H](O)C(=O)N[C@@H](CO[C@H]1O[C@@H](CO)[C@H](O)[C@H](O)[C@@H]1O)[C@@H](CCCCCCCCCCCCCCC)O[C@@H]1O[C@@H](CO)[C@H](O)[C@H](O)[C@@H]1O`, the 3H-TdR incorpolation in the assay filed under Mus musculus [1] is on record as 13195 c.p.m; in the assay filed under Mus musculus [2], 7892 c.p.m; in the assay listed under Mus musculus [3], 45036 c.p.m.

Take `CCCCCCCCCCCCCCC[C@@H](O[C@H]1O[C@@H](CO)[C@H](O)[C@H](O)[C@@H]1O)[C@H](CO)NC(=O)CCCCCCCCCCCCC`: the 3H-TdR incorpolation was 7412 c.p.m in the assay filed under Mus musculus [1], 7722 c.p.m in the assay listed under Mus musculus [2] and 6141 c.p.m in the assay listed under Mus musculus [3].

`CCCCCCCCCCCCCCCCCCCCCC[C@@H](O)C(=O)N[C@@H](CO[C@H]1O[C@@H](CO)[C@H](O)[C@H](O)[C@@H]1O)[C@H](O)CCCCCCCCCCCCCCC`: the 3H-TdR incorpolation in the assay filed under Mus musculus [1] is 20283 c.p.m; in the assay filed under Mus musculus [2], 9454 c.p.m; in the assay listed under Mus musculus [3] it was 45966 c.p.m.

Take `CCCCCCCCCCCCCCC[C@@H](O)[C@H](CO[C@H]1O[C@@H](CO)[C@H](O)[C@H](O)[C@@H]1O)NC(=O)CCCCCCCCCCCCC`: the 3H-TdR incorpolation is listed as 44395 c.p.m in the assay listed under Mus musculus [1], 9018 c.p.m in the assay listed under Mus musculus [2] and 44395 c.p.m in the assay filed under Mus musculus [3].
